{"source": "paper PMC6207370", "about": "(Xenobiotica; the fate of foreign compounds in biological …, 2017)", "key": {"Allometric scaling": {"test": "Allometric scaling", "parameters": "species or system human"}, "[1]": {"assay_type": "in vitro ADME"}, "[2]": {"test": "Incubations with rat hepatic S9", "conditions": "for CLint scaled at 1 μM: male, Sprague-Dawley, Table 1, triplicate, 2–3 experiments; for CLHEP (hepatic clearance): well-stirred model from S9 CLint (+NADPH), uncorrected for fraction unbound"}, "[3]": {"test": "Incubations with human hepatic S9", "conditions": "for CLint scaled at 1 μM: both; for Fm,AO Method A (fraction metabolized by AO): method A (eq. 4); for Fm,AO Method B (fraction metabolized by AO): method B (eq. 5), values > 1 assumed equal to 1"}, "[4]": {"test": "Incubations with mouse hepatic S9", "conditions": "for CLint scaled at 1 μM: male, CD-1, mouse, Table 1, triplicate, 2–3 experiments; for Fm,AO Method A (fraction metabolized by AO) / Fm,AO Method B (fraction metabolized by AO): mouse hepatic S9; for Fm,AO Method A (fraction metabolized by AO): method A (eq. 4); for Fm,AO Method B (fraction metabolized by AO): method B (eq. 5), values > 1 assumed equal to 1"}, "[5]": {"test": "Incubations with minipig hepatic S9", "conditions": "for CLint scaled at 1 μM: male, Gottingen, Table 1, triplicate, 2–3 experiments; for Fm,AO Method A (fraction metabolized by AO): method A (eq. 4); for Fm,AO Method B (fraction metabolized by AO): method B (eq. 5), values > 1 assumed equal to 1"}, "[6]": {"test": "Incubations with guinea pig hepatic S9", "conditions": "for Fm,AO Method A (fraction metabolized by AO) / Fm,AO Method B (fraction metabolized by AO): guinea pig hepatic S9; for Fm,AO Method A (fraction metabolized by AO): method A (eq. 4); for Fm,AO Method B (fraction metabolized by AO): method B (eq. 5), values > 1 assumed equal to 1"}, "[7]": {"test": "Incubations with rhesus monkey hepatic S9", "conditions": "for Fm,AO Method A (fraction metabolized by AO) / Fm,AO Method B (fraction metabolized by AO): rhesus monkey hepatic S9; for Fm,AO Method A (fraction metabolized by AO): method A (eq. 4); for Fm,AO Method B (fraction metabolized by AO): method B (eq. 5), values > 1 assumed equal to 1"}, "[8]": {"test": "Incubations with cynomolgus monkey hepatic S9", "conditions": "for Fm,AO Method A (fraction metabolized by AO) / Fm,AO Method B (fraction metabolized by AO): cynomolgus monkey hepatic S9; for Fm,AO Method A (fraction metabolized by AO): method A (eq. 4); for Fm,AO Method B (fraction metabolized by AO): method B (eq. 5), values > 1 assumed equal to 1"}}, "note": "Like-named read-outs stand apart in the source and are kept apart here.", "data": [{"compound": "Cn1cc(-c2ccc3nnc(Sc4ccc5ncccc5c4)n3n2)cn1", "note": "[SGX523]", "values": [{"measurement": "fold-error of human S9 CLint predicted by SSS", "setting": "Allometric scaling; SSS from cynomolgus monkey", "result": "outside of 3-fold-error"}, {"measurement": "fold-error of human S9 CLint predicted by multispecies allometry (MA)", "setting": "Allometric scaling; minipig/rhesus/guinea pig combination, CLpred/CLobs", "result": 3.0}, {"measurement": "Fm,AO, across species", "setting": "[1]; all species", "result": "0.03 – 0.68"}, {"measurement": "E (estimated hepatic extraction ratio), across species", "setting": "[1]; all species (human, mouse, rat, guinea pig, cynomolgus, rhesus, minipig) hepatic S9", "result": "0.25 – 0.50"}, {"measurement": "CLint scaled at 1 μM", "setting": "[2]; rat, hepatic S9, pH 7.4, CLint (intrinsic clearance) in hepatic S9, rat hepatic S9, in the presence of NADPH", "result": "35.3 ± 6.39", "unit": "mL/min/kg"}, {"measurement": "Fm,AO Method A (fraction metabolized by AO)", "setting": "[2]; rat hepatic S9, method A (eq. 4)", "result": 0.42}, {"measurement": "Fm,AO Method B (fraction metabolized by AO)", "setting": "[2]; rat hepatic S9, method B (eq. 5), values > 1 assumed equal to 1", "result": 0.28}, {"measurement": "E (estimated hepatic extraction ratio)", "setting": "[2]; rat, E = CLHEP/QH from hepatic S9 (+NADPH)", "result": 0.33}, {"measurement": "CLHEP (hepatic clearance)", "setting": "[2]; rat", "result": "23.3 ± 2.85", "unit": "mL/min/kg"}, {"measurement": "CLint scaled at 1 μM", "setting": "[3]; human, hepatic S9, pH 7.4, CLint (intrinsic clearance) in hepatic S9, human hepatic S9, in the presence of NADPH, Table 1, triplicate, 2–3 experiments", "result": "7.1 ± 2.28", "unit": "mL/min/kg"}, {"measurement": "CLint scaled at 1 μM", "setting": "[3]; human, hepatic S9, pH 7.4, CLint −NADPH, human hepatic S9 without NADPH", "result": "4.51 ± 0.31", "unit": "mL/min/kg"}, {"measurement": "Fm,AO Method A (fraction metabolized by AO)", "setting": "[3]; human hepatic S9", "result": 0.36}, {"measurement": "Fm,AO Method B (fraction metabolized by AO)", "setting": "[3]; human hepatic S9", "result": 0.61}, {"measurement": "E (estimated hepatic extraction ratio)", "setting": "[3]; human, E = CLHEP/QH from hepatic S9 (+NADPH)", "result": 0.25}, {"measurement": "CLint scaled at 1 μM", "setting": "[4]; hepatic S9, pH 7.4, CLint (intrinsic clearance) in hepatic S9, mouse hepatic S9, in the presence of NADPH", "result": "39.4 ± 7.19", "unit": "mL/min/kg"}, {"measurement": "Fm,AO Method A (fraction metabolized by AO)", "setting": "[4]", "result": 0.33}, {"measurement": "Fm,AO Method B (fraction metabolized by AO)", "setting": "[4]", "result": 0.22}, {"measurement": "E (estimated hepatic extraction ratio)", "setting": "[4]; mouse, E = CLHEP/QH from hepatic S9 (+NADPH)", "result": 0.30}, {"measurement": "CLint scaled at 1 μM", "setting": "[5]; minipig, hepatic S9, pH 7.4, CLint (intrinsic clearance) in hepatic S9, minipig hepatic S9, in the presence of NADPH", "result": "25.4 ± 1.46", "unit": "mL/min/kg"}, {"measurement": "Fm,AO Method A (fraction metabolized by AO)", "setting": "[5]; minipig hepatic S9", "result": 0.18}, {"measurement": "Fm,AO Method B (fraction metabolized by AO)", "setting": "[5]; minipig hepatic S9", "result": 0.12}, {"measurement": "E (estimated hepatic extraction ratio)", "setting": "[5]; minipig, E = CLHEP/QH from hepatic S9 (+NADPH)", "result": 0.48}, {"measurement": "Fm,AO Method A (fraction metabolized by AO)", "setting": "[6]", "result": 0.23}, {"measurement": "Fm,AO Method B (fraction metabolized by AO)", "setting": "[6]", "result": 0.03}, {"measurement": "E (estimated hepatic extraction ratio)", "setting": "[6]; guinea pig, E = CLHEP/QH from hepatic S9 (+NADPH)", "result": 0.41}, {"measurement": "Fm,AO Method A (fraction metabolized by AO)", "setting": "[7]", "result": 0.34}, {"measurement": "Fm,AO Method B (fraction metabolized by AO)", "setting": "[7]", "result": 0.14}, {"measurement": "E (estimated hepatic extraction ratio)", "setting": "[7]; rhesus monkey, E = CLHEP/QH from hepatic S9 (+NADPH)", "result": 0.40}, {"measurement": "Fm,AO Method A (fraction metabolized by AO)", "setting": "[8]", "result": 0.58}, {"measurement": "Fm,AO Method B (fraction metabolized by AO)", "setting": "[8]", "result": 0.68}, {"measurement": "E (estimated hepatic extraction ratio)", "setting": "[8]; cynomolgus monkey, E = CLHEP/QH from hepatic S9 (+NADPH)", "result": 0.50}]}, {"compound": "CCN(C(C)=O)c1cccc(-c2ccnc3c(C#N)cnn23)c1", "note": "[Zaleplon, zaleplon]", "values": [{"measurement": "Fm,AO, across species", "setting": "[1]; cynomolgus monkey, rhesus monkey, and guinea pig S9", "result": "0.42–0.70"}, {"measurement": "Fm,AO, across species", "setting": "[1]; mouse and minipig S9", "result": "≤ 0.22"}, {"measurement": "CLint scaled at 1 μM", "setting": "[2]; rat, s9, pH 7.4, CLint (intrinsic clearance) in hepatic S9, rat hepatic S9, in the presence of NADPH", "result": "15.6 ± 3.05", "unit": "mL/min/kg"}, {"measurement": "CLHEP (hepatic clearance)", "setting": "[2]; rat", "result": "12.7 ± 2.10", "unit": "mL/min/kg"}, {"measurement": "CLint scaled at 1 μM", "setting": "[3]; human, s9, pH 7.4, CLint (intrinsic clearance) in hepatic S9, human hepatic S9, in the presence of NADPH, Table 1, triplicate, 2–3 experiments", "result": "5.8 ± 1.02", "unit": "mL/min/kg"}, {"measurement": "CLint scaled at 1 μM", "setting": "[3]; human, s9, pH 7.4, CLint −NADPH, human hepatic S9 without NADPH", "result": "3.96 ± 1.35", "unit": "mL/min/kg"}, {"measurement": "Fm,AO Method A (fraction metabolized by AO)", "setting": "[3]; human hepatic S9", "result": 1}, {"measurement": "Fm,AO Method B (fraction metabolized by AO)", "setting": "[3]; human hepatic S9", "result": 0.71}, {"measurement": "Fm,AO (fraction metabolized by AO)", "setting": "[3]; human hepatic S9, methods A and B taken together (data from Table 3)", "result": "≥ 0.71"}, {"measurement": "CLint scaled at 1 μM", "setting": "[4]; s9, pH 7.4, CLint (intrinsic clearance) in hepatic S9, mouse hepatic S9, in the presence of NADPH", "result": "24.4 ± 5.28", "unit": "mL/min/kg"}, {"measurement": "Fm,AO Method A (fraction metabolized by AO)", "setting": "[4]", "result": 0.22}, {"measurement": "Fm,AO Method B (fraction metabolized by AO)", "setting": "[4]", "result": 0}, {"measurement": "CLint scaled at 1 μM", "setting": "[5]; minipig, s9, pH 7.4, CLint (intrinsic clearance) in hepatic S9, minipig hepatic S9, in the presence of NADPH", "result": "5.55 ± 1.34", "unit": "mL/min/kg"}, {"measurement": "Fm,AO Method A (fraction metabolized by AO)", "setting": "[5]; minipig hepatic S9", "result": 0.17}, {"measurement": "Fm,AO Method B (fraction metabolized by AO)", "setting": "[5]; minipig hepatic S9", "result": 0}, {"measurement": "Fm,AO (fraction metabolized by AO)", "setting": "[5]; minipig hepatic S9, methods A and B taken together", "result": "≤ 0.17"}, {"measurement": "Fm,AO Method A (fraction metabolized by AO)", "setting": "[6]", "result": 1}, {"measurement": "Fm,AO Method B (fraction metabolized by AO)", "setting": "[6]", "result": 0.50}, {"measurement": "Fm,AO Method A (fraction metabolized by AO)", "setting": "[7]", "result": 0.42}, {"measurement": "Fm,AO Method B (fraction metabolized by AO)", "setting": "[7]", "result": 0.65}, {"measurement": "Fm,AO Method A (fraction metabolized by AO)", "setting": "[8]", "result": 1}, {"measurement": "Fm,AO Method B (fraction metabolized by AO)", "setting": "[8]", "result": 0.70}]}]}
